According to patent US9073876B2, “Flap modulators” (JANSSEN PHARMACEUTICA NV, priority 2013, dated 2015):

Legend:
[1] = biological target: human FLAP (Homo sapiens (Human), UniProt P20292); assay: FLAP binding assay (HTRF); settings: human FLAP-containing membranes, HTRF format; average of two assay plates, duplicates; read-out: FLAP Binding wild type HTRF Ki
Summary of the method: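 Binding values are averages from two separate assay plates, with each sample run in duplicate per plate. Data are expressed as an HTRF ratio.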

[2] = test system: leukotriene pathway in human whole blood (LTB4 levels); assay: Human whole blood assay (LTB4); type: cell-based; settings: human whole blood diluted 1:1 in RPMI, stimulated with calcium ionophore A23187; single replicate
Summary of the method: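 Heparinised human whole blood, diluted 1:1 in RPMI, was pre-incubated with test compounds for 15 min at 37° Celsius, then stimulated with A23187 (7 μg/mL) for 30 min at 37° Celsius. Plasma LTB4 was measured by immunoassay kit; IC50 from 4-parameter fit; single replicate, at least one healthy donor.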

Sequence of human FLAP (P20292 whole entry): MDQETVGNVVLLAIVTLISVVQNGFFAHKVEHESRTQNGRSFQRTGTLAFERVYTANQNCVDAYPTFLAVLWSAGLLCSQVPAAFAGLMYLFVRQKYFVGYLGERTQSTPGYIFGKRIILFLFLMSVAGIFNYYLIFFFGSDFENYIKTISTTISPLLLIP

| Compound | Ki [1] [nM] | IC50 [2] [nM] |
| --- | --- | --- |
| COc1c(C2CCC2)ccc(-c2cnc(N)c(C#N)n2)c1F [Example 218, 3-amino-6-(4-cyclobutyl-2-fluoro-3-methoxyphenyl)-pyrazine-2-carbonitrile] | 77.3 | > 5000 |
| Nc1cnc(-c2ccc(C3CCCC3)c(OCc3ccccc3)c2F)cn1 [Example 212, 5-[3-(Benzyloxy)-4-cyclopentyl-2-fluorophenyl]pyrazin-2-amine] | 64 | 1100 |
| Nc1cnc(-c2ccc(C3CCC3)c(OCC(O)CNc3cncnc3)c2F)cn1 (racemic) [Example 55, racemic 1-(3-(5-Aminopyrazin-2-yl)-6-cyclobutyl-2-fluorophenoxy)-3-(pyrimidin-5-ylamino)propan-2-ol] | 152 | 555 |
| Nc1cnc(-c2ccc(C3CCC3)c(OCC(O)Cn3ccnn3)c2F)cn1 (racemic) [Example 63, racemic 1-(3-(5-Aminopyrazin-2-yl)-6-cyclobutyl-2-fluorophenoxy)-3-(1H-1,2,3-triazol-1-yl)propan-2-ol] | 120 | 212 |
| Nc1cnc(-c2ccc(C3CCC3)c(OCc3ccccc3C(F)(F)F)c2F)cn1 [Example 3, 5-(4-Cyclobutyl-2-fluoro-3-{[2-(trifluoromethyl)benzyl]oxy}phenyl)-pyrazin-2-amine] | 250 | 271 |
| Nc1cnc(-c2ccc(C3CCC3)c(OCc3ccncc3)c2F)cn1 [Example 14, 5-[4-Cyclobutyl-2-fluoro-3-(pyridin-4-ylmethoxy)phenyl]pyrazin-2-amine] | 122 | 2290 |
| Nc1cnc(-c2ccc(C3CCC3)c(Oc3ncc(C(F)(F)F)cn3)c2F)cn1 [Example 104, 5-(4-Cyclobutyl-2-fluoro-3-{[5-(trifluoromethyl)pyrimidin-2-yl]oxy}phenyl)pyrazin-2-amine] | 100 | 2810 |
| Cc1ccc(COc2c(C3CCC3)ccc(-c3cnc(N)cn3)c2F)cc1C [Example 41, 5-{4-Cyclobutyl-3-[(3,4-dimethylbenzyl)oxy]-2-fluorophenyl}pyrazin-2-amine] | 250 | 1350 |
| COc1cc(Oc2c(C(C)(C)C)ccc(-c3cnc(N)cn3)c2F)ncn1 [Example 204, 5-{4-tert-Butyl-2-fluoro-3-[(6-methoxypyrimidin-4-yl)oxy]phenyl}pyrazin-2-amine] | 81.5 | 171 |
| CC(C)Cc1ccc(-c2cnc(N)cn2)c(F)c1Oc1ncccn1 [Example 323, 5-(2-Fluoro-4-isobutyl-3-(pyrimidin-2-yloxy)phenyl)pyrazin-2-amine] | 211 | 141 |
| Nc1cnc(-c2ccc(C3CCC3)c(OCc3cccc(Cl)c3)c2F)cn1 [Example 35, 5-{3-[(3-Chlorobenzyl)oxy]-4-cyclobutyl-2-fluorophenyl}pyrazin-2-amine] | 173 | 1140 |
| COc1ccc(S(F)(F)(F)(F)F)cc1COc1c(C2CCC2)ccc(-c2cnc(N)cn2)c1F [Example 76, 5-(4-Cyclobutyl-2-fluoro-3-{[2-methoxy-5-(pentafluoro-lambda~6~- sulfanyl)benzyl]oxy}phenyl)pyrazin-2-amine] | 250 | 1770 |
| 6-cyclobutyl-2-fluoro-3-(5H-pyrrolo[2,3-b]pyrazin-2-yl)phenol [Example 176] | 100 | 892 |

Stronger by Ki [1], values ahead:

| Ki [1] [nM] | IC50 [2] [nM] | Compound |
| --- | --- | --- |
| 55.7 | 3310 | COc1c(C2CCC2)ccc(-c2cnc(N)nc2)c1F [Example 159, 5-(4-cyclobutyl-2-fluoro-3-methoxyphenyl)pyrimidin-2-amine] |
| 23 | 914 | N#Cc1ccc(Oc2c(C3CCC3)ccc(-c3cnc(N)cn3)c2F)cc1 [Example 101, 4-[3-(5-Aminopyrazin-2-yl)-6-cyclobutyl-2-fluorophenoxy]benzonitrile] |
| 22.2 | 88 | Nc1ccnc(Oc2c(C3CCC3)ccc(-c3cnc(N)nc3)c2F)n1 [Example 161, 5-{3-[(4-Aminopyrimidin-2-yl)oxy]-4-cyclobutyl-2-fluorophenyl}pyrimidin-2-amine] |
| 19.6 | 1010 | Oc1c(C2CCC2)ccc(-c2cnc3c(c2)OCCN3)c1F [Example 185, 6-cyclobutyl-3-(3,4-dihydro-2H-pyrido[3,2-b][1,4]oxazin-7-yl)-2-fluorophenol] |
| 14.7 | 45.6 | Cc1cc(C)nc(Oc2c(C3CCC3)ccc(-c3cnc(N)nc3)c2F)n1 [Example 167, 5-{4-Cyclobutyl-3-[(4,6-dimethylpyrimidin-2-yl)oxy]-2-fluorophenyl}pyrimidin-2-amine] |
| 11.7 | 129 | Nc1ncc(-c2ccc(C3CCC3)c(Oc3ccnc(N)n3)c2F)cn1 [Example 166, 4-[3-(2-Aminopyrimidin-5-yl)-6-cyclobutyl-2-fluorophenoxy]pyrimidin-2-amine] |
| 9.5 | 52.7 | Nc1cnc(-c2ccc(C3CCCCC3)c(Oc3nccc(N)n3)c2F)cn1 [Example 325, 2-(3-(5-Aminopyrazin-2-yl)-6-cyclohexyl-2-fluorophenoxy)pyrimidin-4-amine] |
| 8.9 | 75.4 | COC(=O)c1ccnc(Oc2c(C3CCC3)ccc(-c3cnc(N)cn3)c2F)n1 [Example 151, methyl 2-[3-(5-aminopyrazin-2-yl)-6-cyclobutyl-2-fluorophenoxy]pyrimidine-4-carboxylate] |
| 8.5 | 51.8 | CC(C)(C)c1ccc(-c2cnc(N)cn2)c(F)c1Oc1ncccn1 [Example 201, 5-[4-tert-Butyl-2-fluoro-3-(pyrimidin-2-yloxy)phenyl]pyrazin-2-amine] |
| 7 | 134 | Nc1cnc(-c2ccc(C3CCC3)c(Oc3cnccn3)c2F)cn1 [Example 259, 5-(4-Cyclobutyl-2-fluoro-3-(pyrazin-2-yloxy)phenyl)pyrazin-2-amine] |
| 6.9 | 177 | COC(=O)c1ccc(Oc2c(C3CCC3)ccc(-c3cnc(N)cn3)c2F)nc1 [Example 107, Methyl 6-[3-(5-aminopyrazin-2-yl)-6-cyclobutyl-2-fluorophenoxy]pyridine-3-carboxylate] |
| 6 | 26.3 | Nc1cnc(-c2ccc(C3CCC3)c(Oc3nccc(N)n3)c2F)cn1 [Example 119, 2-[3-(5-Aminopyrazin-2-yl)-6-cyclobutyl-2-fluorophenoxy]pyrimidin-4-amine] |
| 3.7 | 769 | NC(=O)c1ccc(COc2c(C3CCC3)ccc(-c3cnc4c(c3)OCCN4)c2F)cc1 [Example 193, 4-{[6-Cyclobutyl-3-(3,4-dihydro-2H-pyrido[3,2-b][1,4]oxazin-7-yl)-2-fluorophenoxy]-methyl}-benzamide] |
| 1.7 | 18.5 | COCc1cc(Oc2c(C3CCC3)ccc(-c3cnc(N)cn3)c2F)nc(N)n1 [Example 142, 4-[3-(5-Aminopyrazin-2-yl)-6-cyclobutyl-2-fluorophenoxy]-6-(methoxymethyl)pyrimidin-2-amine] |
| 0.9 | 15.1 | CNc1nc(C)cc(Oc2c(C3CCC3)ccc(-c3cnc(N)cn3)c2F)n1 [Example 269, 4-[3-(5-Aminopyrazin-2-yl)-6-cyclobutyl-2-fluorophenoxy]-N,6-dimethylpyrimidin-2-amine] |
